# Data as given in patent US10301267B2, “Compounds” (AstraZeneca AB, priority 2006, dated 2019).
# Where a name gives a salt, the structure may show the parent alone.
# Biological target: FGFR1 active kinase (Homo sapiens, UniProt P11362)
# Experiment: FGFR Kinase assay - Caliper; note: 408 µM ATP
# Type: biochemical
# Conditions: FGFR1 […], 408 uM ATP; mean of n as printed; read-out: FGFR Kinase assay - Caliper, IC50
# Method: FGFR Kinase Assay—Caliper
# To determine inhibition of FGFR activity, kinase assays were conducted using Caliper technology.
# Kinase activity assays were performed in Greiner 384-well low volume plates, with a total reaction volume of 12 ul per well. Final concentration of FGFR1 active kinase in each reaction well was 7.2 nM. The substrate for each assay was a custom peptide with fluorescent tag (13 amino acids in length, […] with the fluorescene tag on the first K).
# Compounds were serially diluted in 5% (v/v) DMSO, before being added to assay plates. The Enzyme (at 7.2 nM [final]) and Substrate (at 3.6 uM [final]) were added separately to the compound plates, in reaction buffer [comprising: 50 mM MOPS (Sigma, Catalogue No. M1254)—pH 6.5, 0.004% Triton (Sigma, Catalogue No. X-100), 2.4 mM DTT, 12 mM MgCl2, 408 uM ATP] resulting in a final DMSO concentration in the reaction mix of 0.8%.
# Assay plates were incubated at room temperature for 1.5 h, before the reaction was stopped with the addition of buffer [comprising: 100 mM HEPES—pH7.5, 0.033% Brij-35 (Sigma Catalogue No. B4184), 0.22% Caliper Coating Reagent #3 (Caliper Life Sciences Catalogue No. 760050), 88 mM EDTA, 5% DMSO]. Stopped assay plates were then read using the Caliper LabChip® LC3000 (which uses microfludics to measure a shift in mobility between fluorescent labelled peptide and the FGFR1 kinase—phosphorylated form of this peptide).
# In the assay, compounds were tested at a range of concentrations.
# Percentage inhibition at 1 uM, as expressed herein, is a calculated value based on the curve fit that was generated experimentally. From the fitted curve plot, the effect of compound at a concentration of 1 uM was calculated as a percentage inhibition. The IC50 is the concentration of compound, which inhibits FGFR1 kinase activity by 50% in the context of this assay.
# Chain of FGFR1 active kinase (P11362 22-822): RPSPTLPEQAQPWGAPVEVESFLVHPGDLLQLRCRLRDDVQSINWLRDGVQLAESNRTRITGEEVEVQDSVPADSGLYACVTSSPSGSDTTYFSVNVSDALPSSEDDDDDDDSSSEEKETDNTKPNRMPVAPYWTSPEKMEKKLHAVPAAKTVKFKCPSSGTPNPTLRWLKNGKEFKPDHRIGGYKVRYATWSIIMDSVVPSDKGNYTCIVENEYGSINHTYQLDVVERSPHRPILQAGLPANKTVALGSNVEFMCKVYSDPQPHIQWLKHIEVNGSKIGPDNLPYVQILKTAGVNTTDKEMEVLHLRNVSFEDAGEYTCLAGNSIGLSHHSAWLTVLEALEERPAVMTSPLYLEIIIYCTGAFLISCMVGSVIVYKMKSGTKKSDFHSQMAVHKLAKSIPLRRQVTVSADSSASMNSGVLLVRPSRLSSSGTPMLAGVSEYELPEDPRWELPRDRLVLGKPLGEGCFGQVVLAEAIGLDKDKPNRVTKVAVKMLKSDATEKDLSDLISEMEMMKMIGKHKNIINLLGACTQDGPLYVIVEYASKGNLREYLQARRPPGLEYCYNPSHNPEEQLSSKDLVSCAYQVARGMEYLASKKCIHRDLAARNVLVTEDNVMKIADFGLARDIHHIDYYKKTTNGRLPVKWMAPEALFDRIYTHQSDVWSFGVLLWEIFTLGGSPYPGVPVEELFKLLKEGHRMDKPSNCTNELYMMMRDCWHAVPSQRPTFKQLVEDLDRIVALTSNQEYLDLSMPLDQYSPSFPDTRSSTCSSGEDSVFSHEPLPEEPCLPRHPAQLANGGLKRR
row,SMILES,IC50
1,"COc1cc(COc2cc(NC(=O)c3ccc(N4CCN(C)CC4)cn3)[nH]n2)cc(OC)c1 [Example 69, N-[5-[(3,5-Dimethoxyphenyl)methoxy]-2H-pyrazol-3-yl]-5-(4-methylpiperazin-1-yl)pyridine-2-carboxamide]",122 nM
2,"COc1cc(COc2cc(NC(=O)c3ccc(NCCN(C)C)cc3)[nH]n2)cc(OC)c1 [Example 70, N-[5-[(3,5-Dimethoxyphenyl)methoxy]-2H-pyrazol-3-yl]-4-(2-dimethylaminoethylamino)benzamide Hydrochloride]",31 nM
3,"COc1ccc(C(=O)Nc2cc(OCc3cc(OC)cc(OC)c3)n[nH]2)cc1 [Example 71, N-[5-[(3,5-Dimethoxyphenyl)methoxy]-2H-pyrazol-3-yl]-4-methoxy-benzamide]",157 nM
4,"COc1cc(COc2cc(NC(=O)c3ccc(N4CCNCC4)nc3)[nH]n2)cc(OC)c1 [Example 72, N-[5-[(3,5-Dimethoxyphenyl)methoxy]-2H-pyrazol-3-yl]-6-piperazin-1-yl-pyridine-3-carboxamide]",25 nM
5,"COc1cc(COc2cc(NC(=O)c3cnc(N4CCN(C)CC4)nc3)n[nH]2)cc(OC)c1 [Example 73, N-[5-[(3,5-Dimethoxyphenyl)methoxy]-1H-pyrazol-3-yl]-2-(4-methylpiperazin-1-yl)pyrimidine-5-carboxamide]",44 nM
6,"COc1cc(COc2cc(NC(=O)c3cccc(N4CCNCC4)c3)n[nH]2)cc(OC)c1 [Example 74, N-[5-[(3,5-Dimethoxyphenyl)methoxy]-1H-pyrazol-3-yl]-3-piperazin-1-yl-benzamide]",130 nM
7,"COc1cc(COc2cc(NC(=O)c3ccc(N4CCCNCC4)cc3)n[nH]2)cc(OC)c1 [Example 75, 4-(1,4-Diazepan-1-yl)-N-[5-[(3,5-dimethoxyphenyl)methoxy]-1H-pyrazol-3-yl]benzamide Hydrochloride]",8.5 nM
8,"CN(C)Cc1ccc(CCc2cc(NC(=O)c3ccc(N4CCN(C)CC4)cc3)n[nH]2)o1 [Example 76, N-[5-[2-[5-(Dimethylaminomethyl)-2-furyl]ethyl]-1H-pyrazol-3-yl]-4-(4-methylpiperazin-1-yl)benzamide]",340 nM
9,"CN1CCN(c2ccc(C(=O)Nc3cc(CCc4ccc5c(c4)OCO5)n[nH]3)cc2)CC1 [Example 77, N-[5-(2-Benzo[1,3]dioxol-5-ylethyl)-2H-pyrazol-3-yl]-4-(4-methylpiperazin-1-yl)benzamide]",140 nM
10,"COc1cc(CCc2cc(NC(=O)c3ccc(N4CCN(C)C(C)C4)cc3)n[nH]2)cc(OC)c1 (stereo not drawn) [Example 81, N-[5-[2-(3,5-Dimethoxyphenyl)ethyl]-1H-pyrazol-3-yl]-4-(3,4-dimethylpiperazin-1-yl)benzamide]",40 nM
11,"COc1cc(CCc2cc(NC(=O)c3ccccc3NCc3cc(C)no3)n[nH]2)cc(OC)c1 [Example 83, N-[5-[2-(3,5-Dimethoxyphenyl)ethyl]-1H-pyrazol-3-yl]-2-[(3-methyl-1,2-oxazol-5-yl)methylamino]benzamide]",1000 nM
12,"COc1cc(CCc2cc(NC(=O)c3ccc(N4CCN(C)CC4)nn3)[nH]n2)cc(OC)c1 [Example 84, N-[5-[2-(3,5-Dimethoxyphenyl)ethyl]-2H-pyrazol-3-yl]-6-(4-methylpiperazin-1-yl)pyridazine-3-carboxamide]",390 nM
13,"COc1cc(CCc2cc(NC(=O)c3ccc(C(=O)N4CCN(C)CC4)cc3)n[nH]2)cc(OC)c1 [Example 86, N-[5-[2-(3,5-Dimethoxyphenyl)ethyl]-1H-pyrazol-3-yl]-4-(4-methylpiperazine-1-carbonyl)benzamide]",96 nM
14,"COc1cc(CCc2cc(NC(=O)c3ccc(N4CCN(C(C)C)CC4)cc3)n[nH]2)cc(OC)c1 [Example 87, N-[5-[2-(3,5-Dimethoxyphenyl)ethyl]-1H-pyrazol-3-yl]-4-(4-propan-2-ylpiperazin-1-yl)benzamide]",0.4 nM
15,"COc1cc(CCc2cc(NC(=O)c3ccc(N4CCN(C5CCC5)CC4)cc3)n[nH]2)cc(OC)c1 [Example 89, 4-(4-Cyclobutylpiperazin-1-yl)-N-[5-[2-(3,5-dimethoxyphenyl)ethyl]-1H-pyrazol-3-yl]benzamide]",9 nM
16,"COc1cc(CCc2cc(NC(=O)c3ccc(N4CCN(C(C)=O)CC4)cc3)n[nH]2)cc(OC)c1 [Example 90, 4-(4-Acetylpiperazin-1-yl)-N-[5-[2-(3,5-dimethoxyphenyl)ethyl]-1H-pyrazol-3-yl]benzamide]",56 nM
17,"COc1cc(CCc2cc(NC(=O)c3ccc(C4CCN(C)CC4)cc3)n[nH]2)cc(OC)c1 [Example 92, N-[5-[2-(3,5-Dimethoxyphenyl)ethyl]-1H-pyrazol-3-yl]-4-(1-methyl-4-piperidyl)benzamide]",7.9 nM
18,"COc1cc(CCc2cc(NC(=O)c3ccc(CN4CCN(C)CC4)cc3)n[nH]2)cc(OC)c1 [Example 95, N-[5-[2-(3,5-Dimethoxyphenyl)ethyl]-1H-pyrazol-3-yl]-4-[(4-methylpiperazin-1-yl)methyl]benzamide]",140 nM

# Next, values leading:
row,IC50,SMILES
1,68000 nM,"COC(=O)c1ccc(C(=O)Nc2cc(CCc3cccc(OC)c3)n[nH]2)nc1 [Example 61, Methyl 6-[[5-[2-(3-methoxyphenyl)ethyl]-2H-pyrazol-3-yl]carbamoyl]pyridine-3-carboxylate]"
2,4540 nM,"COc1cccc(CCc2cc(NC(=O)c3ccc(Cl)nc3)[nH]n2)c1 [Example 62, 6-Chloro-N-[5-[2-(3-methoxyphenyl)ethyl]-2H-pyrazol-3-yl]pyridine-3-carboxamide]"
3,3770 nM,"COc1cccc(CCc2cc(NC(=O)c3ccc(C#N)nc3)[nH]n2)c1 [Example 63, 6-Cyano-N-[5-[2-(3-methoxyphenyl)ethyl]-2H-pyrazol-3-yl]pyridine-3-carboxamide]"
4,5000 nM,"COc1cccc(CCc2cc(NC(=O)c3cc(O)ccn3)[nH]n2)c1 [Example 64, 4-Hydroxy-N-[5-[2-(3-methoxyphenyl)ethyl]-2H-pyrazol-3-yl]pyridine-2-carboxamide]"
5,240 nM,"COc1cccc(CCc2cc(NC(=O)c3ccc(CCN4CCCC4)nc3)[nH]n2)c1 [Example 65, N-[5-[2-(3-Methoxyphenyl)ethyl]-2H-pyrazol-3-yl]-6-(2-pyrrolidin-1-ylethyl)pyridine-3-carboxamide]"
6,1020 nM,"COc1cccc(CCc2cc(NC(=O)c3ccc(C(=O)O)nc3)[nH]n2)c1 [Example 66, 5-[[5-[2-(3-Methoxyphenyl)ethyl]-2H-pyrazol-3-yl]carbamoyl]pyridine-2-carboxylic Acid]"
7,2860 nM,"COC(=O)c1ccc(C(=O)Nc2cc(CCc3cccc(OC)c3)n[nH]2)cn1 [Example 67, Methyl 5-[[5-[2-(3-methoxyphenyl)ethyl]-2H-pyrazol-3-yl]carbamoyl]pyridine-2-carboxylate]"
8,470 nM,"COc1ccc(OC)c(CCc2cc(NC(=O)c3ccc(N4CCN(C)CC4)cc3)[nH]n2)c1 [Example 78, N-[5-[2-(2,5-Dimethoxyphenyl)ethyl]-2H-pyrazol-3-yl]-4-(4-methylpiperazin-1-yl)benzamide]"
9,200 nM,"COc1ccc(CCc2cc(NC(=O)c3ccc(N4CCN(C)CC4)cc3)[nH]n2)c(C)c1 [Example 79, N-[5-[2-(4-Methoxy-2-methyl-phenyl)ethyl]-2H-pyrazol-3-yl]-4-(4-methylpiperazin-1-yl)benzamide]"
10,250 nM,"COc1cccc(CCc2cc(NC(=O)c3ccc(N4CCN(S(C)(=O)=O)CC4)cc3)n[nH]2)c1 [Example 91, N-[5-[2-(3-Methoxyphenyl)ethyl]-1H-pyrazol-3-yl]-4-(4-methylsulfonylpiperazin-1-yl)benzamide]"
11,37 nM,"COc1cc(CCc2cc(NC(=O)c3ccc(N4CCN5CCCC5C4)cc3)[nH]n2)cc(OC)c1 (stereo not drawn) [Example 93, 4-(3,4,6,7,8,8a-Hexahydro-1H-pyrrolo[2,1-c]pyrazin-2-yl)-N-[5-[2-(3,5-dimethoxyphenyl)ethyl]-2H-pyrazol-3-yl]benzamide]"
12,81 nM,"COc1cc(CCc2cc(NC(=O)c3ccc(N4CCN5CCCCC5C4)cc3)[nH]n2)cc(OC)c1 (stereo not drawn) [Example 94, 4-(1,3,4,6,7,8,9,9a-Octahydropyrido[2,1-c]pyrazin-2-yl)-N-[5-[2-(3,5-dimethoxyphenyl)ethyl]-2H-pyrazol-3-yl]benzamide]"
